According to US9708314B2, “Heterocyclic amide compound” (NISSAN CHEMICAL INDUSTRIES, LTD., priority 2013, dated 2017):

Key:
Format in all cases: in vivo
Cyperus difformis = experiment: Test Example 3: herbicidal effect by application to foliage (Wagner pot, water depth 0.1-0.5 cm); settings: Nineteenth Table; application herbicide amount 320 g/ha
Summary of the method: (§1)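 Visual 0–5 rating of herbicidal ratio, taken 3 weeks after foliar spray of a diluted emulsion formulation at rates expressed as g/ha. Plants had been sown in alluvial soil under 0.1–0.5 cm water and grown 14 days at 25–30 °C under glass before application.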

[1] = test system: Echinochloa crus-galli var. crus-galli; experiment: as above; settings: Nineteenth Table; application herbicide amount 320 g/ha
Summary of the method: as §1

Leptochloa chinensis = experiment: as above; settings: Nineteenth Table; application herbicide amount 320 g/ha
Summary of the method: as §1

[2] = test system: directly sowed Oryza sativa; experiment: Test Example 3: effect on crop by application to foliage (Wagner pot, water depth 0.1-0.5 cm); settings: Nineteenth Table; application herbicide amount 320 g/ha
Summary of the method: as §1

Abutilon theophrasti = experiment: Test Example 4: herbicidal effect by application to foliage (diluvial soil, plastic box); settings: application to foliage, application herbicide amount 320 g/ha
Summary of the method: (§2)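 Scores run from 0 (herbicidal ratio ≤5%) to 5 (≥90%, almost fully withered) and were assessed three weeks after foliar spraying. Seedlings had been raised for 14 days at 25-30° C in sterilized diluvial soil before treatment, with the emulsion diluted in water to the stated g/ha dose.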

Alopecurus myosuroides = experiment: as above; settings: application to foliage, application herbicide amount 320 g/ha
Summary of the method: as §2

Apera spica-venti. = experiment: as above; settings: application to foliage, application herbicide amount 320 g/ha
Summary of the method: as §2

Avena fatua = experiment: as above; settings: application to foliage, application herbicide amount 320 g/ha
Summary of the method: as §2

Chenopodium album = experiment: as above; settings: application to foliage, application herbicide amount 320 g/ha
Summary of the method: as §2

Digitaria ciliaris = experiment: as above; settings: application to foliage, application herbicide amount 320 g/ha
Summary of the method: as §2

[3] = test system: Echinochloa crus-galli var. crus-galli; experiment: as above; settings: application to foliage, application herbicide amount 320 g/ha
Summary of the method: as §2

Galium spurium = experiment: as above; settings: application to foliage, application herbicide amount 320 g/ha
Summary of the method: as §2

Lolium multiflorum Lam. = experiment: as above; settings: application to foliage, application herbicide amount 320 g/ha
Summary of the method: as §2

Setaria viridis = experiment: as above; settings: application to foliage, application herbicide amount 320 g/ha
Summary of the method: as §2

Veronica persica = experiment: as above; settings: application to foliage, application herbicide amount 320 g/ha
Summary of the method: as §2

Row | Compound | E (Cyperus difformis) herbicidal ratio grade (Cyperus difformis) | H (Echinochloa crus-galli var. crus-galli) herbicidal ratio grade [1] | D (Leptochloa chinensis) herbicidal ratio grade (Leptochloa chinensis) | b (directly sowed Oryza sativa) effect on crop grade [2] | M (Abutilon theophrasti) herbicidal effect (Abutilon theophrasti) | J (Alopecurus myosuroides) herbicidal effect (Alopecurus myosuroides) | L (Apera spica-venti.) herbicidal effect (Apera spica-venti.) | I (Avena fatua) herbicidal effect (Avena fatua) | O (Chenopodium album) herbicidal effect (Chenopodium album) | F (Digitaria ciliaris) herbicidal effect (Digitaria ciliaris) | H (Echinochloa crus-galli var. crus-galli) herbicidal effect [3] | Q (Galium spurium) herbicidal effect (Galium spurium) | K (Lolium multiflorum Lam.) herbicidal effect (Lolium multiflorum Lam.) | G (Setaria viridis) herbicidal effect (Setaria viridis) | R (Veronica persica) herbicidal effect (Veronica persica)
1 | CSc1nnc2c(C(=O)Nc3nnc(C)o3)ccc(C(F)(F)F)n12 [1-018, N-(5-Methyl-1,3,4-oxadiazol-2-yl)-3-(methylthio)-5-(trifluoromethyl)-[1,2,4]triazol o[4,3-a]pyridine-8-carboxamide] | 4 (Herbicidal ratio of 70% or more and less than 90%) | 4 (Herbicidal ratio of 70% or more and less than 90%) | 4 (Herbicidal ratio of 70% or more and less than 90%) | 2 (Herbicidal ratio of 20% or more and less than 40%) | 3 (Herbicidal ratio of 40% or more and less than 70%) | 0 (Herbicidal ratio of 5% or less (almost no effect)) | 0 (Herbicidal ratio of 5% or less (almost no effect)) | 0 (Herbicidal ratio of 5% or less (almost no effect)) | 5 (Herbicidal ratio of 90% or more (almost completely withered)) | 0 (Herbicidal ratio of 5% or less (almost no effect)) | 1 (Herbicidal ratio of 5% or more and less than 20%) | 0 (Herbicidal ratio of 5% or less (almost no effect)) | 0 (Herbicidal ratio of 5% or less (almost no effect)) | 2 (Herbicidal ratio of 20% or more and less than 40%) | 4 (Herbicidal ratio of 70% or more and less than 90%)
2 | COCCOCc1nnc2c(C(=O)Nc3nnc(C)o3)ccc(C(F)(F)F)n12 [1-019] | 5 (Herbicidal ratio of 90% or more (almost completely withered)) | 5 (Herbicidal ratio of 90% or more (almost completely withered)) | 5 (Herbicidal ratio of 90% or more (almost completely withered)) | 4 (Herbicidal ratio of 70% or more and less than 90%) | 4 (Herbicidal ratio of 70% or more and less than 90%) | 2 (Herbicidal ratio of 20% or more and less than 40%) | 4 (Herbicidal ratio of 70% or more and less than 90%) | 3 (Herbicidal ratio of 40% or more and less than 70%) | 5 (Herbicidal ratio of 90% or more (almost completely withered)) | 5 (Herbicidal ratio of 90% or more (almost completely withered)) | 5 (Herbicidal ratio of 90% or more (almost completely withered)) | 4 (Herbicidal ratio of 70% or more and less than 90%) | 2 (Herbicidal ratio of 20% or more and less than 40%) | 4 (Herbicidal ratio of 70% or more and less than 90%) | 4 (Herbicidal ratio of 70% or more and less than 90%)
3 | Cc1nnc(NC(=O)c2ccc(C(F)(F)F)n3c(COCC(F)(F)F)nnc23)o1 [1-020] | 4 (Herbicidal ratio of 70% or more and less than 90%) | 5 (Herbicidal ratio of 90% or more (almost completely withered)) | 4 (Herbicidal ratio of 70% or more and less than 90%) | 2 (Herbicidal ratio of 20% or more and less than 40%) | 2 (Herbicidal ratio of 20% or more and less than 40%) | 1 (Herbicidal ratio of 5% or more and less than 20%) | 1 (Herbicidal ratio of 5% or more and less than 20%) | 1 (Herbicidal ratio of 5% or more and less than 20%) | 5 (Herbicidal ratio of 90% or more (almost completely withered)) | 4 (Herbicidal ratio of 70% or more and less than 90%) | 5 (Herbicidal ratio of 90% or more (almost completely withered)) | 3 (Herbicidal ratio of 40% or more and less than 70%) | 1 (Herbicidal ratio of 5% or more and less than 20%) | 3 (Herbicidal ratio of 40% or more and less than 70%) | 3 (Herbicidal ratio of 40% or more and less than 70%)
4 | CCC(C)c1nnc2c(C(=O)Nc3nnc(C)o3)ccc(C(F)(F)F)n12 (stereo not drawn) [1-021] | 5 (Herbicidal ratio of 90% or more (almost completely withered)) | 5 (Herbicidal ratio of 90% or more (almost completely withered)) | 5 (Herbicidal ratio of 90% or more (almost completely withered)) | 3 (Herbicidal ratio of 40% or more and less than 70%) | 5 (Herbicidal ratio of 90% or more (almost completely withered)) | 1 (Herbicidal ratio of 5% or more and less than 20%) | 1 (Herbicidal ratio of 5% or more and less than 20%) | 1 (Herbicidal ratio of 5% or more and less than 20%) | 5 (Herbicidal ratio of 90% or more (almost completely withered)) | 4 (Herbicidal ratio of 70% or more and less than 90%) | 4 (Herbicidal ratio of 70% or more and less than 90%) | 3 (Herbicidal ratio of 40% or more and less than 70%) | 1 (Herbicidal ratio of 5% or more and less than 20%) | 3 (Herbicidal ratio of 40% or more and less than 70%) | 4 (Herbicidal ratio of 70% or more and less than 90%)
5 | Cc1cc(-c2nnc3c(C(=O)Nc4nnc(C)o4)ccc(C(F)(F)F)n23)no1 [1-022] | 4 (Herbicidal ratio of 70% or more and less than 90%) | 5 (Herbicidal ratio of 90% or more (almost completely withered)) | 5 (Herbicidal ratio of 90% or more (almost completely withered)) | 2 (Herbicidal ratio of 20% or more and less than 40%) | 5 (Herbicidal ratio of 90% or more (almost completely withered)) | 1 (Herbicidal ratio of 5% or more and less than 20%) | 1 (Herbicidal ratio of 5% or more and less than 20%) | 1 (Herbicidal ratio of 5% or more and less than 20%) | 5 (Herbicidal ratio of 90% or more (almost completely withered)) | 4 (Herbicidal ratio of 70% or more and less than 90%) | 5 (Herbicidal ratio of 90% or more (almost completely withered)) | 2 (Herbicidal ratio of 20% or more and less than 40%) | 1 (Herbicidal ratio of 5% or more and less than 20%) | 3 (Herbicidal ratio of 40% or more and less than 70%) | 4 (Herbicidal ratio of 70% or more and less than 90%)
6 | CCCc1nnc2c(C(=O)Nc3nnc(C)o3)ccc(C(F)(F)F)n12 [1-024] | 4 (Herbicidal ratio of 70% or more and less than 90%) | 5 (Herbicidal ratio of 90% or more (almost completely withered)) | 4 (Herbicidal ratio of 70% or more and less than 90%) | 2 (Herbicidal ratio of 20% or more and less than 40%) | 4 (Herbicidal ratio of 70% or more and less than 90%) | 0 (Herbicidal ratio of 5% or less (almost no effect)) | 1 (Herbicidal ratio of 5% or more and less than 20%) | 1 (Herbicidal ratio of 5% or more and less than 20%) | 5 (Herbicidal ratio of 90% or more (almost completely withered)) | 4 (Herbicidal ratio of 70% or more and less than 90%) | 4 (Herbicidal ratio of 70% or more and less than 90%) | 3 (Herbicidal ratio of 40% or more and less than 70%) | 0 (Herbicidal ratio of 5% or less (almost no effect)) | 3 (Herbicidal ratio of 40% or more and less than 70%) | 4 (Herbicidal ratio of 70% or more and less than 90%)
